Legend:
Type in all cases: cell-based, human
p53 [1] = test: Western blotting in Caco-2 cells; details: Caco-2, IC50 dose, 24 h, normalized to β-actin
Protocol: (§1) The expression of Bax, Bcl-2, Cyt-C, cleaved cas-3 and p53 proteins in Caco-2 cells was determined using Western blot procedure according to the methods mentioned previously. […] Then, cells were lysed in 150 µL pre-cold lysis buffer [Tris-Base “10 mM”, NaCl “100 mM”, Ethylene glycol bis (2-aminoethyl) tetraacetic acid (EGTA) “20 mM”, ethylenediaminetetraacetic acid (EDTA) “25 mM”, 1% (v/v) NP-40, and 1% (v/v) Triton X-100; pH 7.4] immediately supplemented with 1:450 protease and phosphatase inhibitors cocktail (Sigma-Aldrich). Caco-2 cells were immediately collected by cell scraper, sonicated, and centrifuged at 12,000 rpm for 15 min. Total proteins in the produced supernatant were determined colorimetrically using the Pierce™ 660 nm Assay (Thermo Scientific, Rockford, IL, USA). Equal amounts (30 µg) of protein were mixed with sodium dodecyl sulfate (SDS)-loading buffer containing Tris-HCl, dithiothreitol (DTT), SDS, glycerol, and Bromophenol blue. The protein samples were then denatured by boiling for 5 min, allowed to cool on ice for 10 min and separated by SDS-polyacrylamide gel electrophoresis (Cleaver Scientific Ltd., Rugby, Warwickshire, UK), and transferred onto Polyvinylidene Difluoride (PVDF) membranes for 30 min using Trans-Blot® SD semi-dry transfer cell (Biorad). Membranes were then blocked with 5% (w/v) blotting-grade dry milk (Biorad) in Tris-buffered saline-Tween-20 (TBS-T), washed and incubated with antibodies against Bax, Bcl-2, cleaved caspase-3 (1:100–1:2000, Cell Signaling Technology), cytochrome c (1:500, Santa Cruz Biotechnology), p53 (1:1500, Abcam) and β-actin (1:2500, Sigma-Aldrich) for 16–17 h at 4 °C in a humidified chamber. The blots were washed, incubated at RT with matched horseradish peroxidase (HRP)-linked secondary antibodies (Dako, Denmark) for 1.5 h, and the bands were visualized with chemiluminescence Western Lightning ECL (Perkin Elmer, Waltham, MA) for 1 min in Chemi-Doc imager (Biorad, Hercules, CA, USA) and finally analyzed with Bio-Rad Image Lab software with normalization to β-actin.

Cyt-C = test: Western blotting in Caco-2 cells; details: Caco-2, IC50 dose, 24 h, normalized to β-actin
Protocol: as §1

Caco-2 cells = test: Isobologram analysis of retinoid + 5-FU combinations (MTT); details: Caco-2, combination with 5-FU; for CI (combination index): CI < 1 is synergy
Description: This mathematical model allows the determination of CI (combination index) values based on the Equation (1):CI = d1/D1 + d2/D2 (1) where d1 and d2 are the doses of drug 1 and drug 2 that, when given in combination, produce a specific response. D1 and D2 are the doses of drug 1 and drug 2, that, when given individually, produce the same response. Also, CI < 1 is synergy, CI = 1 is additivity and CI > 1 is antagonism
DRI < 1 indicates unfavorable dose reduction and ineffective combination.

Cytochrome-C = test: Immunocytochemistry of cytosolic Cyt-C in Caco-2 cells; details: Caco-2, IC50, 24 h, compared to 0.1% DMSO control
Protocol: Caco-2 cells were seeded onto coverslips at a density of 1 × 10^6 cells using 0.1 mg/mL Poly-L-Lysine (Sigma-Aldrich, St. Louis, MO, USA) for immunocytochemistry (ICC) analysis. After treatment with IC50 of retinoids, cells were fixed in formalin neutral buffer (FNB) solution. The fixed cells were permeabilized with 0.1% Triton-x 100 and then blocked in 1% bovine serum albumin (BSA, prepared in PBS containing 0.1% Tween 20) for 30 min. Then, cells were incubated with Alexa Fluor® 488-conjugated anti-cytochrome C antibody overnight. After incubation, nuclei of cells were stained with Hoechst 33,258 (Sigma-Aldrich, St. Louis, MO, USA, 1:500). The coverslips were mounted in anti-fading medium (0.1% p-phenylenediamine, dissolved in 90% glycerin/PBS) and cytochrome C protein expression was detected using Carl Zeiss LSM 710 confocal microscope.

p53 [2] = test: Gene expression analysis (qPCR) in Caco-2 cells; details: Caco-2, IC50, 24 h, relative to 0.1% DMSO control
Protocol: (§2) Sensitive cancer cell line (Caco-2) was used for gene expression analysis of different genes controlling differentiation, apoptosis, tumor resistance, aggressiveness, and metastasis. […] After incubation, cells were harvested, and the total RNA was purified using Favor-Prep^TM Blood/Cultured cell total RNA purification mini kit (Favorgen Biotech Corp., Ping-Tung, Taiwan). RNA was reverse transcribed into the first-strand cDNA using Revert Aid First Strand cDNA Synthesis Kit (Thermo Scientific, Waltham, MA, USA). HERA^PLUS SYBR® Green qPCR Kit (Willowfort, Nottingham, UK) was utilized in quantitative polymerase chain reactions (qPCR). Gene expression was analyzed and quantified using the 2ˆ^−ΔΔCT method.

Caspase-8 (Cas-8) = test: Gene expression analysis (qPCR) in Caco-2 cells; details: Caco-2, IC50, 24 h, relative to 0.1% DMSO control
Protocol: as §2

RAR-γ = test: Gene expression analysis (qPCR) in Caco-2 cells; details: Caco-2, IC50, 24 h, relative to 0.1% DMSO control, normalized to GAPDH
Protocol: as §2

cytochrome-C (Cyt-C) = test: Gene expression analysis (qPCR) in Caco-2 cells; details: Caco-2, IC50, 24 h, relative to 0.1% DMSO control
Protocol: as §2

Bax = test: Gene expression analysis (qPCR) in Caco-2 cells; details: Caco-2, IC50, 24 h, relative to 0.1% DMSO control
Protocol: as §2

| Structure (SMILES) | p53 protein level (p53 [1]) | Cyt-C protein level (Cyt-C) | DRI (dose reduction index) (Caco-2 cells) | CI (combination index) (Caco-2 cells) | cytosolic Cyt-C protein released (anti-Cyt-C fluorescence intensity) (Cytochrome-C) | p53 gene expression, fold change (p53 [2]) | Cas-8 gene expression, fold change (Caspase-8 (Cas-8)) | RAR-γ gene expression, fold increase (RAR-γ) | Cyt-C gene expression, fold change (cytochrome-C (Cyt-C)) [fold] | Bax gene expression, fold change (Bax) |
| --- | --- | --- | --- | --- | --- | --- | --- | --- | --- | --- |
| CC1(C)CCC(C)(C)c2cc(C#Cc3cccc(C(=O)O)c3)ccc21 [EC19, 3-(5,5,8,8-tetramethyl-5,6,7,8-tetrahydronaphthalen-2-ylethynyl) benzoic acid] | significantly increased | significantly increased | 4.5 ± 0.6 | 0.46 ± 0.06 | significant increase | 1.2 fold | 7.1 fold | without affecting | 3.6 | 1.9 fold |
| CC1(C)CCC(C)(C)c2cc(C#Cc3ccc(C(=O)O)cc3)ccc21 [EC23, 4-(5,5,8,8-tetramethyl-5,6,7,8-tetrahydronaphthalen-2-ylethynyl) benzoic acid] |  |  | 7.5 ± 0.8 | 0.27 ± 0.03 | second rank | did not induce p53 upregulation | did not induce significant expression | 2.3 fold | 2.8 | not able to induce any significant change |
